# Tests used:
# [1] = Metabolic stability, mice liver S9 fraction; format: in vitro ADME; conditions: mice liver S9, 5 μM, 37° C., 1.0 mM NADPH
# Protocol: (§1) Compounds were individually incubated (5 μM in DMSO) with human and mice liver S9 fractions in 50 mM KHPO4 buffer at 37° C. in the presence of 1.0 mM NADPH and additional cofactors. At 0, 10, 20, and 40 minutes, 100 μL aliquots were removed and added to 300 μL of acetonitrile. Standard curves were prepared in a similar manner with each compound. Samples were analyzed for parent concentration by LC-MS/MS. The in vitro metabolic half-life was determined from the concentration-time plots using WinNonlin. These in vitro data represent the rate of oxidative, hydrolytic, and conjugative metabolism.
# [2] = Metabolic stability, human liver S9 fraction; format: in vitro ADME; conditions: human liver S9, 5 μM, 37° C., 1.0 mM NADPH
# Protocol: as §1
# [3] = tested on: Mammary Adenocarcinoma M16/C; experiment: Antitumor activity in vivo, M16/C mammary tumor model; conditions: for CRs, complete regression / T-C (Days), tumor growth delay to 750 mg / T/C (%), median treated tumor mass/median control tumor mass / NSD, nonspecific deaths/total in treatment group: D7-15; for T/C (%), median treated tumor mass/median control tumor mass: 3 days after the end of therapy
# Protocol: The anticancer efficacy of the compound of Example 8 was evaluated using a murine mammary […] tumor model, M16/C. This highly vascularized tumor is very aggressive with a doubling time of 1.5 days. Tumor fragments were implanted by trocar fragment in the right axilla of C3H mice on Day 0. The efficacy of treatment was assessed both in an advanced stage model (test compound treatment for nine consecutive days after tumors had reached 100 mg). The compound in Example 8 was dosed once a day over the treatment period by oral gavage in 0.05 M sodium lactate buffer, pH 4. Animals were allowed to continue off therapy until the tumors reached the evaluable size (750 mg). Animal weights were determined throughout the study to provide an estimate of test compound toxicity. A mean weight loss >10% (3–4 g) for any treatment group is an indication of host toxicity. Anticancer activity was evaluated using two methods. The first is %T/C where T=median mass of treated tumors 3 days after the end of therapy, and C=median mass of the control group at that same time point. The highest degree of antitumor activity using this assessment occurs when T=0, and %T/C=0%. […] The second method uses tumor growth delay (T−C), where T=the days for the median treated tumor to reach an evaluable size (750 mg), and C=days for control tumors to reach that same size.
# A90 human ovarian cells = experiment: A90 tumor cell proliferation (Sulphorhodamine B); format: cell-based; conditions: 4 days with compound
# Protocol: (§2) Human umbilical vein endothelial cells (HUVECs) (Clonetics, Palo Alto, Calif.) were seeded at 2000 cells per well in growth medium containing 2% serum (EGM, Clonetics) and allowed to attach overnight (37° C., 5% CO2, 100% humidity). C6 rat glioma cells (ATCC) were seeded at 600 cells per well and incubated in F10 medium (GIBCO, Gaithersburg, Md.) supplemented with 15% horse serum, 2.5% fetal bovine serum, and 1 mM glutamine. A90 human ovarian cells (Dr. Kent Crickard, SUNY/AB Medical School) were seeded at 600 cells per well in RPMI1640 (GIBCO) plus 10% fetal bovine serum. Plates were incubated overnight (37° C., 5% CO2, 100% humidity) to allow the cells to attach. Test compound dilutions were added to the appropriate wells, and the incubation was continued for 4 additional days. Monolayers were fixed in 10% trichloroacetic acid (30 minutes at 4° C.), washed with distilled water, and stained with Sulphorhodamine B (0.075% in 1% acetic acid) (Sigma). Plates were washed in 1% acetic acid, and the bound dye was solubilized in 100 μL unbuffered Tris base. Absorbance was measured at 540 nm using a reference filter wavelength of 630 nm. Inhibitor potency (IC50) versus cellular proliferation was determined, and endothelial cell selectivity was assessed by comparing the inhibition of HUVEC proliferation to A90 and C6 tumor cell proliferation (Table 3).
# PDGFR = target: T1, PDGFR (Mus musculus, UniProt P05622); experiment: Kinase inhibition assay (DELFIA), PDGF; format: biochemical; conditions: 40 μM ATP, kinase domain 20 nM
# T1 construct: The kinase domains from FGFR-1, VEGFR-2, Lck, and PDGF were purified from baculoviral vectors expression systems and were used in the assays at 20 nM
# Protocol: The inhibition activity of the compounds in Examples 8, 9, 10, 11, and 12 and Reference Compounds A and B were evaluated using the Dissociated Enhanced Lanthanide Fluoroimmuno Assay (DELFIA) (Frank Loganzo and Carolyn Hardy. A sensitive, time-resolved fluorometric assay for the detection of inhibitors of phosphotyrosine kinases. American Biotechnology Laboratory, December 1998). DELFIA plates (EG&G Wallac, Gaithersburg, Md.) were coated overnight with Poly Glu Tyr (4:1) (Sigma, St. Louis, Mo.) at room temperature, washed (DELFIA wash reagent, EG&G Wallac), and spotted with 1 μL inhibitor dilution or DMSO carrier control per well. In some cases, kinase was autophosphorylated prior to analysis by incubating 45 minutes at 4° C. in the presence of 4 mM ATP and 25 mM MgCl2. A typical 100 μL kinase assay reaction contained 20 mM Tris (pH 7.5), 20 mM MgCl2, 50 mM NaCl, 5 mM DTT, and protease inhibitors (Mini EDTA-free protease inhibitor cocktail tablets, Boehringer Mannheim, Indianapolis, Ind.), 40 μM ATP, and an appropriate concentration of inhibitor. The reaction was allowed to continue for 30 minutes at room temperature. […] One hundred microliter DELFIA enhancement solution (EG&G Wallac) was added and time-resolved fluorescence of the reactions determined using a VICTOR2 1420 multilable counter (EG&G Wallac). […]
# [4] = tested on: Human umbilical vein endothelial cells (HUVECs); experiment: Serum stimulated HUVEC cell proliferation (Sulphorhodamine B); format: cell-based
# Protocol: as §2
# T1 sequence (P05622 553-1098): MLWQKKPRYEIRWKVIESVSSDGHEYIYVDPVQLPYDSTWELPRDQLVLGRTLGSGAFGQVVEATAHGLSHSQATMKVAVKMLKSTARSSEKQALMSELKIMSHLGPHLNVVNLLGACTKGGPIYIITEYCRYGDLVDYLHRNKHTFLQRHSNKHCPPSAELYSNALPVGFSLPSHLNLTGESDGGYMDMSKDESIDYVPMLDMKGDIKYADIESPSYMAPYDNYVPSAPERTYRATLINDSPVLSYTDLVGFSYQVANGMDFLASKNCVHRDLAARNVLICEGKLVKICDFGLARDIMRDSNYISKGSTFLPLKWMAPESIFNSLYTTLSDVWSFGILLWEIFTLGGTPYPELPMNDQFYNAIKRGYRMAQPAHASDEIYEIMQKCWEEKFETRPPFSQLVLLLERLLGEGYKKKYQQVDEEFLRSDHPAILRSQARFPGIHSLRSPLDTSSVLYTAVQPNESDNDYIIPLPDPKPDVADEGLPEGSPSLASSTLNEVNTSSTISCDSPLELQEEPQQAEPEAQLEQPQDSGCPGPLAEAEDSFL
substance,measurement,setting,value
"6-(3,5-Dimethoxy-phenyl)-8-ethyl-2-(pyridin-4-ylamino)-8H-pyrido[2,3-d]pyrimidin-7-one [Example 8]",MS9 in vitro metabolic half-life,[1],>3.33 h
same,HS9 in vitro metabolic half-life,[2],>3.33 h
same,"CRs, complete regression","[3]; 5 mg/kg, oral",0/6
same,"T-C (Days), tumor growth delay to 750 mg","[3]; 5 mg/kg, oral",4.3 days
same,"T/C (%), median treated tumor mass/median control tumor mass","[3]; 5 mg/kg, oral",39%
same,"NSD, nonspecific deaths/total in treatment group","[3]; 10 mg/kg, oral",0/6
same,"T-C (Days), tumor growth delay to 750 mg","[3]; 10 mg/kg, oral",7.9 days
same,"T/C (%), median treated tumor mass/median control tumor mass","[3]; 10 mg/kg, oral",15%
same,"CRs, complete regression","[3]; 20 mg/kg, oral",4/6
same,"NSD, nonspecific deaths/total in treatment group","[3]; 20 mg/kg, oral",0/6
same,"T-C (Days), tumor growth delay to 750 mg","[3]; 20 mg/kg, oral",10.7 days
same,"T/C (%), median treated tumor mass/median control tumor mass","[3]; 20 mg/kg, oral",0%
same,"CRs, complete regression","[3]; 40 mg/kg, oral",6/6
same,"NSD, nonspecific deaths/total in treatment group","[3]; 40 mg/kg, oral",0/6
same,"T-C (Days), tumor growth delay to 750 mg","[3]; 40 mg/kg, oral",12.4 days
same,"T/C (%), median treated tumor mass/median control tumor mass","[3]; 40 mg/kg, oral",0%
same,regression of tumors below the level of palpation,[3]; 40 and 20 mg/kg dose levels,complete regressions
same,tumor growth delay (T−C) relative to duration of therapy,[3]; 40 and 20 mg/kg dose levels,greater than the duration of therapy
same,anticancer activity (%T/C),[3]; all four doses tested,meaningful anticancer activity
same,tolerability,"[3]; all four doses tested, oral, nine consecutive days",well-tolerated
same,IC50,A90 human ovarian cells,2.92 µM
same,IC50,PDGFR,2.54 µM
same,IC50,"[4]; 2% serum growth medium, 4 days with compound",0.009 µM
same,selectivity for serum-stimulated endothelial cell proliferation,[4]; HUVEC compared to A90 and C6 tumor cell proliferation,selective inhibitors

# Source: patent US7022711B2, “2-(4-Pyridyl)amino-6-dialkoxyphenyl-pyrido[2,3-d]pyrimidin-7-ones” (Warner-Lambert Company, priority 2000, dated 2006)
